One may read the IC50 as the concentration that inhibits the measured activity by half.

For test [1], the target named is T1, EWS-FLI1 binding to the NR0B1 promoter (Homo sapiens, UniProt Q01543+Q01844).
T1 construct: EWS (EWSR1, Q01844) N-terminal portion, fusion partner; endogenous in cells; host or cells: A673 Ewing sarcoma cells
T1 sequence (Q01844+Q01543 with tags, fused parts or gaps): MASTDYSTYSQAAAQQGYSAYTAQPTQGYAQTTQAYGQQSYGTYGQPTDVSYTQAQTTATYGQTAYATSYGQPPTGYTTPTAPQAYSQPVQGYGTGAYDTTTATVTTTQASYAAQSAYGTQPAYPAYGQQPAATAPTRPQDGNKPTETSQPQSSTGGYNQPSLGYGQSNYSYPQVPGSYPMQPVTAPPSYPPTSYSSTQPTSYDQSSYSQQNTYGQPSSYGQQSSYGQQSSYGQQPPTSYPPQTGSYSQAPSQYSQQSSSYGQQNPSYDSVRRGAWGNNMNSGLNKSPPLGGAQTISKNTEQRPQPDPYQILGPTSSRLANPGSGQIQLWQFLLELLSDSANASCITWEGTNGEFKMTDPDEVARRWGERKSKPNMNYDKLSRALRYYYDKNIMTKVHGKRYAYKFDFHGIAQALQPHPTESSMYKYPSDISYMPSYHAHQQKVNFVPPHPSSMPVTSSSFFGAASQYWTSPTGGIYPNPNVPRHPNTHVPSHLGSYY
In words: ChIP-qPCR, EWS-FLI1 binding to NR0B1 promoter in A673 cells. In kind it is cell-based. The note with it: 5 nM, 4 hrs, anti-FLI1 ChIP, DMSO 31-fold, p = 0.0018. The method, then: ChIP-qPCR was performed as previously described. Briefly, cells were treated with compounds for 4 hrs, then crosslinked, lysed, and chromatin fragmented. After ChIP, quantitative PCR was used to quantify NR0B1, p53, and RPS26 loci, and fold enrichment was determined by the formula: Fold enrichment = 2χ(Input Ct-ChIP Ct)/2χ(Input Ct-IgG Ct).
We used chromatin immunoprecipitation coupled with quantitative PCR (ChIP-qPCR) to assess effects of actinomycin D on EWS-FLI1 binding to chromatin in cells. A673 cells were treated with either actinomycin D at 5 nM, or vehicle. After crosslinking, chromatin was sheared and EWS-FLI1-DNA complexes were immunoprecipitated using an anti-FLI1 antibody. We used primers flanking the EWS-FLI1-binding site in the promoter of the NR0B1 gene to quantify binding of EWS-FLI1. We used RPS26 and TP53 as control loci since neither are bound by EWS-FLI [15] and we have shown that RPS26 and TP53 transcript levels were unaffected by actinomycin D treatment (Figure 2F). Without actinomycin D treatment, binding of EWS-FLI1 to the NR0B1 promoter was enriched 31-fold by comparison to IgG controls (Figure 4A, DMSO). Treatment of cells with actinomycin D reduced binding of EWS-FLI1 to the NR0B1 promoter to 4-fold (p = 0.0018; Figure 4A).

The subject of a further test is NR0B1 mRNA. The test can be described thus: Quantitative RT-PCR of endogenous NR0B1 mRNA in A673 cells. The test is classed as cell-based. The method, then: Duplicate wells of A673 cells were treated overnight with different concentration of actinomycin D. RNA was extracted with absolutely mRNA purification kit from Stratagene. 0.5 µg total RNA was mixed with 1 µl iScript Reverse Transcriptase, 10 µl of 2× RT-PCR reaction mix for probes from Bio-Rad, 1 µl of NR0B1, RPS26 and TP53 probes from Life Technologies and H2O up to 20 µl total volume. RT-PCR was performed in an iCycler iQ with 50°C for 10 minutes for one cycle; 95°C, 15 seconds, 60°C 40 seconds for 40 cycles. Each RNA sample was technically duplicated, and relative abundance was calculated by the delta Ct method.

The subject of the next test is NR0B1 promoter. In words: NR0B1-Luc firefly luciferase reporter assay in A673 cells. The test is classed as cell-based, human. The note with it: Homo sapiens, A673, 16 h, read-out: IC50 for inhibition of NR0B1 activity. The text has this:
The NR0B1 promoter was amplified from human genomic DNA using the 5′ primer- […] and 3′ primer - […]. NR0B1 promoter amplicon was cloned into the NheI and HindIII sites in the pGL.3Basic vector. The 5′ primer-[…] was used to amplify a truncated NR0B1 promoter in which the entire EWS-FLI1 binding region (GGAA repeats) was deleted to construct pGL.3b-NR0B1del. All constructs were confirmed by sequencing. All other plasmids were previously described.
Ewing sarcoma A673 cells at 50% confluence in 100 mm dishes were transfected with both 5.8 µg of pGL.3b-NR0B1 and 0.2 µg of pGL.3b-Ubc-RL reporter plasmids as above. Eight hours post-transfection, cells were trypsinized and 600 ul (2×10^5) of cells were added to each well of 24 well plates. 5 µl of different concentration of compounds or DMSO control were added to each well. Each treatment was performed in triplicate. Cells were incubated for 16 hours, then cells were lysed in 100 µl of lysis buffer and 10 µl of cell lysate was used for the dual luciferase assay. Renilla luciferase activity was used as an internal control for normalization of nonspecific transcriptional inhibition or cytotoxic effects. Experiments were repeated three times. IC50 values were calculated using Prism (Graphpad).
To determine the effect of compounds on EWS-FLI1 activity in cells, we used a reporter assay comprised of the NR0B1 promoter, a prototypical EWS-FLI1-regulated gene, driving expression of firefly luciferase. Renilla luciferase driven by the Ubiquitin C promoter (UbC-RL) was used as an internal control. Confirming prior studies, the NR0B1 promoter was verified to be highly responsive to EWS-FLI1, whereas the UbC promoter activity was not subject to regulation by EWS-FLI1 (Figure S1).
On the technique in general: In a reporter assay the amount or activity of a reporter protein is the signal.

A further test deals with EWS-FLI1-induced genes. The test can be described thus: Gene expression profiling with GSEA in A673 cells. In kind it is cell-based. The note with it: 5 nM, 24 hours. The method, then:
Ewing sarcoma A673 cells at 65% confluence were treated in duplicate with DMSO (0.2%) or 5 nM actinomycin D for 24 hours. RNA was extracted with an Absolutely RNA kit. 100 ng of total RNA was hybridized to Affymetrix Gene 1.0 ST Arrays (DFCI Microarray Core Facility). Array quality was verified before background correction, RMA normalization and log2 conversion using the Bioconductor R package affy (URL: http://www.bioconductor.org). Differential gene expression was determined using the limma Bioconductor package. Genes with a fold-change >2 and Benjamini-Hochberg-corrected p-value <0.01 were retained for further consideration. Gene expression data have been deposited in GEO (GSE45414) and can be accessed at URL: http://www.ncbi.nlm.nih.gov/geo/query/acc.cgi?acc=GSE45414.
Consistent with the enrichment of E2F targets among EWS-FLI1-induced genes we noted in the shRNA study above (Figure 3A), we also found down-regulation of this class of signatures in A673 cells treated with low-dose actinomycin D (Figure 3B, black circles).

In another test the test system is EWS-FLI1. In words: AlphaScreen proximity assay, binding of recombinant EWS-FLI1 to cognate DNA oligo.

Starred links: 1 amine or outer side, 2 acyl side, 3 side chain; linkers in the order of their positions; H or OH if unused. Positions of bridges follow the written chain, without caps; N, C: chain ends. Non-standard residues stand in square brackets, D forms with d. Residues, ends and D or L forms follow the SMILES beside them. Chains are numbered I, II in the order given. Actinocin(9to1) = Cc1c2oc3c(C)ccc(C(=O)[*:1])c3nc-2c(C(=O)[*:2])c(N)c1=O; NMeV = CN[C@H](C(=O)O)C(C)C; Sar = CNCC(=O)O

As to `Cc1c2oc3c(C)ccc(C(=O)N[C@@H]4C(=O)N[C@H](C(C)C)C(=O)N5CCC[C@H]5C(=O)N(C)CC(=O)N(C)[C@@H](C(C)C)C(=O)O[C@@H]4C)c3nc-2c(C(=O)N[C@@H]2C(=O)N[C@H](C(C)C)C(=O)N3CCC[C@H]3C(=O)N(C)CC(=O)N(C)[C@@H](C(C)C)C(=O)O[C@@H]2C)c(N)c1=O` [Actinomycin D] (I: T[dV]P[Sar][NMeV] / II: T[dV]P[Sar][NMeV]; ester I:1-I:C, II:1-II:C; linker I:N-II:N via Actinocin(9to1)), the “Binding of EWS-FLI1 to the NR0B1 promoter, fold enrichment over IgG control” value in test [1] amounted to 4 fold. For the same compound, the “Expression of NR0B1 and control transcripts” value with NR0B1 mRNA (A673 cells, overnight, 50 nM) was “similarly attenuated”. In the test on NR0B1 mRNA (A673 cells, overnight, 5 -10 nM, versus control transcripts p53 and RPS26), the “Expression of endogenous NR0B1 mRNA” value is recorded as “preferentially attenuated”. For the same compound, the “Window between preferential effect on EWS-FLI1 and global inhibition of transcription” value in the test on NR0B1 mRNA (in cells) was < 10 fold. Besides, the IC50 turned out to be 2.8 nM in the test with NR0B1 promoter and 45 nM at EWS-FLI1 (read-out: IC50 EWS-FLI1, disruption of recombinant EWS-FLI1 binding to DNA). The “Expression of EWS-FLI1-induced genes (GSEA)” value with EWS-FLI1-induced genes is “repressed to a significant degree”. Moreover, the “Disruption of EWS-FLI1 binding compared with p53 binding in the parallel assays” value in the test on EWS-FLI1 (EWS-FLI1 versus p53) is given as “greatest differential effect”.

The values are drawn from publication PMC3718762, “Differential Disruption of EWS-FLI1 Binding by DNA-Binding Agents” (PLoS ONE, 2013).
